Consider one compound from publication PMC5666006, “Combating virulence of Gram-negative bacilli by OmpA inhibition” (Scientific Reports, 2017).

In one series the target is T1, E. coli OmpA (Escherichia coli, UniProt P0A910).
T1 construct: A recombinant 37 kDa polypeptide fragment containing the transmembrane and periplasmatic domains of the E. coli OmpA protein; purchased NovoPro (China)
The experiment in a line: NMR detection of binding (1H, STD, PFG diffusion). The settings on record: AOA-2 750 μM, OmpA 8 μM, 1 mM Triton X-100, pH 7.3, 25 °C. The procedure: A recombinant 37 kDa polypeptide fragment containing the transmembrane and periplasmatic domains of the E. coli OmpA protein was purchased from NovoPro (China). OmpA samples contained Triton X-100 to mimic the membrane environment.
All NMR experiments were recorded at 25 °C on a Bruker Avance 800 MHz spectrometer equipped with a cryoprobe.
Saturation transfer difference[38] (STD) experiments were obtained using a pseudo-2D pulse sequence for the interleaved acquisition of on-resonance and off-resonance spectra. Total saturation time was 3 seconds. Suppression of the residual water signal was achieved by excitation sculpting.
Diffusion NMR experiments were performed using the LED pulse sequence[40] with gradient lengths of 3 ms and a diffusion delay of 110 ms. The total inter-scan delay was 4.5 s.

The test system of series [1] is JPAB01: ompA-deficient ATCC 17978 strain. Briefly: Bacterial cytotoxicity on A549 cells, MTT assay. It is filed as cell-based, A. baumannii. The settings on record: JPAB01, 0.5 mg/mL, 48 h. The procedure: Bacterial cytotoxicity. […] Prior the evaluation of bacterial cytotoxicity, we firstly removed viable bacteria from A549 cells cultures and washed A549 cells five times with pre-warmed PBS. Then, cellular viability was assessed as indicated above.
Figure S5. Cell death induced by A. baumannii ATCC 17978 and JPAB01 strains. A549 cells were infected for 48 h with 10^8 CFU/mL of ATCC 17978 and JPAB01 strains treated with AOA-2 (0 or 0.5 mg/mL). Bacterial cytotoxicity was assessed by monitoring the mitochondrial reduction activity using the MTT assay. Representative results of two independent experiments are shown; data are means ± SEM. JPAB01: ompA-deficient ATCC 17978 strain. *P<0.05: between infected and non-infected cells, #P<0.05: between untreated and treated groups. […]
In general terms: Formazan colour is commonly taken as a measure of viable cells.

In the next series the test system is C57BL/6 female mice. The experiment in a line: AOA-2 in vivo toxicity (Reed and Munch method). The arrangement: species or system mouse. The procedure: (§1) Animals were housed in regulation cages with food and water ad libitum. This study was carried out in strict accordance with the recommendations in the Guide for the Care and Use of Laboratory Animals[41]. The protocol was approved by the Committee on the Ethics of Animal Experiments of the University Hospital of Virgen del Rocío, Seville (2012PI/238). All surgery was performed under sodium thiopental anaesthesia, and all efforts were made to minimize suffering.
(§2) The Reed and Munch method was used[42]. […] LD50 value was determined using the Probit method.
(§3) 20, 40, 80 or 160 mg/kg. Mice survival was monitored for a one week and lethal doses (LD) 0,
(§4) 50 and 100 were calculated.

Series [2] can be described thus: AOA-2 in vivo toxicity (Reed and Munch method). The arrangement: species or system mouse. The note with it: female, C57BL/6, mouse, in vivo, ip, mice, single i.p. dose, groups of six, survival one week. The procedure:
as §1, §2, §3, §4

In a further series the test system is E. coli ATCC 25922. It is filed as cell-based. The procedure:
(§5) In the initial screening, the bactericidal activity of the synthetic peptides and their toxicity on human lung epithelial cells (A549) were evaluated.
(§6) Table S1. MICs of the six hexapeptides for A. baumannii and E. coli.
(§7) Peptides P. aeruginosa PaO1
(§8) MIC: minimal inhibitory concentration

Series [3] has as its system A. baumannii ATCC 17978. It is filed as cell-based. The procedure:
as §5, §6, §7, §8

The subject of series [4] is P. aeruginosa PaO1. It is filed as cell-based. The procedure: as §5, §6, §7, §8
The subject of series [5] is A. baumannii ATCC 17978. The experiment in a line: Adhesion of bacteria to A549 cells. It is filed as cell-based. The note with it: 2 h. The procedure:
Subsequently, infected A549 cells were washed five times with pre-warmed PBS and lysed with 0.5% Triton X-100. Diluted lysates were plated onto blood agar (Blood-Agar Columbia, Becton Dickinson Microbiology Systems, USA) and incubated at 37 °C for 24 h for enumeration of developed colonies and then the determination of the number of bacteria that attached to A549 cells.
Figure S3. OmpA inhibitor hexapeptides reduce A. baumannii adherence to A549 cells. A549 cells were infected with 10^8 CFU/mL of ATCC 17978 strain during 2 h in presence of AOA-1, […]
of bacterial adherence was calculated as follow: [(number of colonies of treated A549 cells with peptide / number of colonies of non-treated cells) x 100]. Representative results of three independent experiments are shown; data are means ± SEM. *P<0.05: between untreated and […]

Series [6] can be described thus: AOA-2 pharmacokinetics in serum. The note with it: mouse, in vivo, ip, 10 mg/kg.
Series [7] concerns P. aeruginosa PaO1. Briefly: Fibronectin-binding assay. It is filed as cell-based. The settings on record: P. aeruginosa PaO1, 0.25 or 0.5 mg/mL, 2 h. The procedure:
Fibronectin-binding assay was performed as described previously. Briefly, A. baumannii ATCC 17978, P. aeruginosa PaO1, and E. coli ATCC 25922 grown overnight at 37 °C in LB were resuspended in PBS and collected by centrifugation at 5,000 × g for 10 min. […] Then, 50 µL of bacterial suspension were mixed with 50 µL of PBS, added to fibronectin coated wells and incubated 2 h at room temperature for bacterial adsorption. Non-adhered bacteria were discarded and wells were washed six times with sterile PBS to remove unbound bacteria. Adherent bacteria were then collected with 125 µL of sterile PBS containing 0.5% Triton X-100. Diluted lysates were plated onto sheep blood agar and incubated at 37 °C for 24 h for enumeration of developed colonies and then the determination of the number of bacteria that attached to fibronectin.

Where a SMILES comes first, the peptide text is derived from it. [ ]: non-standard residue; d: D form.

T1 sequence (P0A910 22-346): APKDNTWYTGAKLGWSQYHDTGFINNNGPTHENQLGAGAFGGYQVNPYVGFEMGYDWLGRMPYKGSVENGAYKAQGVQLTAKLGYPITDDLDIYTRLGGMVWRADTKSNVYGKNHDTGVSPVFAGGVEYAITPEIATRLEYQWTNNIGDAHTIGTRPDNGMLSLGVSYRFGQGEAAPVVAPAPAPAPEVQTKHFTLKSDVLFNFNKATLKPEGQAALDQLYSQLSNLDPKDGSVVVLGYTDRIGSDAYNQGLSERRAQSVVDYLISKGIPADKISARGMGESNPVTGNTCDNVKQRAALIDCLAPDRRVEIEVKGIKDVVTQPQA

The term LD50 denotes the dose expected to kill half of the subjects tested. A lower LD50 goes with a more toxic substance. Usually MIC stands for the smallest concentration in the dilution series that meets the test's criterion for growth inhibition. For orientation: half-life means the time needed for the level to fall by half in the phase considered. For `N=C(N)NCCC[C@@H]1NC(=O)[C@H]2CCCN2C(=O)[C@H](Cc2c[nH]c3ccccc23)NC(=O)[C@H](CCCNC(=N)N)NC(=O)[C@H]2CCCN2C(=O)[C@H](Cc2c[nH]c3ccccc23)NC1=O` [AOA-2] (cyclo(RW[dP]RW[dP])), on E. coli OmpA, the “binding to OmpA by NMR (in words)” value is recorded as “interacting with OmpA”. Moreover, the “A549 cell death induced by ompA-deficient A. baumannii (in words)” value in [1] is given as “no effect on cell death”. For the same compound, the “dose without any evidence of toxicity” value in the series on C57BL/6 female mice (i.p.) is at most 40 mg/kg. Further, the LD100 in the series on C57BL/6 female mice (single i.p. dose, groups of six, survival one week) worked out at 160 mg/kg. Also, the LD50 at 168 h in series [2] (Probit method) was found to be 85 mg/kg. Further, the MTD at 168 h in [2] (read-out: LD0 (maximum tolerated dose)) came out at 40 mg/kg. In addition, the MIC in the series with E. coli ATCC 25922, against A. baumannii ATCC 17978 [3] and against P. aeruginosa PaO1 [4] was over 500 µg/mL in each case. For the same compound, the “reduction in the adherence of A. baumannii to A549 cells” value in the series on A. baumannii ATCC 17978 [5] (0.25 mg/mL, 10^8 CFU/mL) is on record as “more than 60%”. In the series with A. baumannii ATCC 17978 [5] (0.25, 0.5, 1 mg/mL), the “ability to reduce A. baumannii adherence to A549 cells, rank among synthesized peptides (in words)” value is reported as “greatest ability to reduce the A. baumannii adherence to A549 cells”. In series [6], this compound gave a half-life of 56 min. Besides, the “bacterial adherence to fibronectin (in words)” value in the series with P. aeruginosa PaO1 [7] is “significant decrease in the bacterial adherence to fibronectin”.
